Assay in all cases: MIC by agar dilution method
Holding throughout (format): cell-based
On the technique in general: In agar dilution the substance is mixed into plates at graded concentrations.

Experiment [1] concerns Helicobacter pylori 27606.
The subject of experiment [2] is Helicobacter pylori 27604.
Experiment [3] concerns Streptococcus fecalis OKI 80171. The following applies: OKI80171, Streptococcus fecalis OKI 80171, agar dilution.
In experiment [4] the test system is Pseudomonas aeruginosa ATCC 27853. The conditions noted are these: ATCC27853.
Experiment [5] has as its system Escherichia coli OKI 35034.
Experiment [6] concerns Proteus vulgaris OKI 60002.
Experiment [7] concerns Salmonella typhi OKI 10084. The conditions noted are these: Salmonella enterica, Salmonella typhi OKI 10084, agar dilution.
Experiment [8] relates to Staphylococcus aureus ATCC 25923.
In experiment [9] the test system is Staphylococcus epidermis OKI 110001. The conditions noted are these: OKI110001.
Setting [10] is: Helicobacter pylori 27606, agar dilution, read-out: MIC.
[11] abbreviates: Helicobacter pylori 27604, agar dilution, read-out: MIC.
[12] abbreviates: Escherichia coli, OKI35034, Escherichia coli OKI 35034, agar dilution, read-out: MIC.
Where [13] appears, read: Proteus vulgaris, OKI60002, Proteus vulgaris OKI 60002, agar dilution, read-out: MIC.
Setting [14] is: ATCC25923, Staphylococcus aureus ATCC 25923, agar dilution, read-out: MIC.

Experimental findings from US6333424A, “Therapeutic derivatives of diphosphonates” (priority 1999, dated 2001) are described below.

≈ marks a conversion by molar mass, not a printed value. Where two headings read alike, the source gives them in different places. A value given as a limit tells only on which side of the number the result lay.

Broadly, the MIC is the smallest concentration in the dilution series that meets the test's criterion for growth inhibition. In the case of `CCOP(=O)(OCC)C(CSCC(=O)OCOC(=O)N1CCN(c2cc3c(cc2F)c(=O)c(C(=O)O)cn3CC)CC1)P(=O)(OCC)OCC` [Example 1 B, 7-(4-((2,2-Bis-(diethoxyphosphoryl)-ethylsulfanyl)-acetoxymethoxycarbonyl)-piperazin-1-yl)-1-ethyl-6-fluoro-4-oxo-1,4-dihydroquinoline-3-carboxylic acid], the MIC in experiment [1] (Helicobacter pylori, 27606) is 3.12 µg/mL (≈ 4.06 µM); in [2] (Helicobacter pylori, 27604), 6.25 µg/mL (≈ 8.14 µM); in experiment [3], 12.5 µg/mL (≈ 16.3 µM); in experiment [4] (Pseudomonas aeruginosa), 12.5 µg/mL (≈ 16.3 µM); in experiment [5] (Escherichia coli, OKI35034, Escherichia coli OKI 35034, agar dilution) it was ≥ 0.39 µg/mL; in experiment [6] (Proteus vulgaris, OKI60002), 1.56 µg/mL (≈ 2.03 µM). Also, the MIC in experiment [7] (read-out: MIC) was ≥ 0.78 µg/mL; in experiment [8] (ATCC25923), 6.25 µg/mL (≈ 8.14 µM); in experiment [9] (Staphylococcus), 1.56 µg/mL (≈ 2.03 µM).

For the molecule `CC1(C)S[C@@H]2[C@H](NC(=O)[C@H](N)c3ccc(O)cc3)C(=O)N2[C@H]1C(=O)O` [Amoxicillin, amoxicillin], the MIC in [1] (setting [10]) is ≥ 0.39 µg/mL; in experiment [2] (setting [11]) it was ≥ 0.39 µg/mL; in experiment [4] (Pseudomonas aeruginosa ATCC 27853, agar dilution, read-out: MIC), > 100 µg/mL; in experiment [5] (Escherichia coli OKI 35034, agar dilution) it was 50 µg/mL (≈ 137 µM); in experiment [5] (setting [12]) it was 25 µg/mL (≈ 68.4 µM); in experiment [6] (Proteus vulgaris OKI 60002, agar dilution) it was 100 µg/mL (≈ 274 µM). In addition, the MIC is 50 µg/mL (≈ 137 µM) in [6] (setting [13]); ≥ 0.39 µg/mL in [8] (setting [14]); ≥ 0.39 µg/mL in experiment [9] (Staphylococcus epidermis OKI 110001, agar dilution, read-out: MIC).

Consider `CCn1cc(C(=O)O)c(=O)c2cc(F)c(N3CCNCC3)cc21` [Norfloxacin, norfloxacin], for which the MIC in [1] (setting [10]) was 6.25 µg/mL (≈ 19.6 µM); in experiment [2] (setting [11]), 6.25 µg/mL (≈ 19.6 µM); in experiment [3] it was 12.5 µg/mL (≈ 39.1 µM); in experiment [4] (Pseudomonas aeruginosa), 12.5 µg/mL (≈ 39.1 µM); in experiment [5] (setting [12]) it was ≥ 0.39 µg/mL; in experiment [6] (setting [13]), 0.78 µg/mL (≈ 2.44 µM). For the same molecule, the MIC in experiment [7] (TYPHI) is ≥ 0.39 µg/mL; in [8] (setting [14]), 6.25 µg/mL (≈ 19.6 µM); in experiment [9] (Staphylococcus), 1.56 µg/mL (≈ 4.89 µM).
